# Laboratory results: patent US9724300B2, “Long-lasting, controlled-release local anesthetic liposome preparation” (Terumo Kabushiki Kaisha, priority 2012, dated 2017)
# Structures can show the parent of a compound that is named as a salt.
# System: postoperative pain model of rats
# Assay: Postoperative pain model of rats (foot sole pain model), von Frey filament test
# Type: in vivo, male Wistar rats
# Description: A pentobarbital sodium injection (Nembutal injection, made by Sumitomo Dainippon Pharma Co., Ltd.) (0.3 mL) was intraperitoneally administered to male Wistar rats for anesthesia. Thereafter, a skin incision was made with a No. 11 scalpel blade (made by FEATHER Safety Razor Co., Ltd.) longitudinally at a position of 5 mm from the heel of the left foot bottom. The plantaris muscle was taken out from the incision site, followed by longitudinal incision. Subsequently, the skin was subjected to a knotted suture with a 5-0 nylon thread by double stitches. Moreover, a […] was applied in a single layer thereonto so as not to permit the administered controlled-release preparation to leak. […] More particularly, using the von Frey hair set (commercial name: Touch-Test, made by North Coast Medical Inc.) requiring a given stress before bending, this was pressed against the operated site of rats vertically from beneath the mesh of a gauge wherein rats were accommodated, whereupon a stress (a withdrawal threshold against mechanical stimuli) was determined at the time when the rat raised paws in surprise. […] Using the postoperative pain model of rat set out above, the analgesic effect of the bupivacaine hydrochloride-containing, controlled-release preparation of Example 1 was evaluated according to the von Frey filament test. […]
SMILES,"analgesic effect (increase of threshold value) (ropivacaine hydrochloride itself (stock solution), similar postoperative pain model of rat)","analgesic effect (increase of threshold value) (bupivacaine hydrochloride itself (stock solution), similar postoperative pain model of rats)"
"CCCN1CCCC[C@H]1C(=O)Nc1c(C)cccc1C [ropivacaine hydrochloride, Ropivacaine hydrochloride]",no analgesic effect was obtained even at the postoperative first day,–
"CCCCN1CCCCC1C(=O)Nc1c(C)cccc1C (centres unmarked) [bupivacaine hydrochloride, Bupivacaine hydrochloride]",–,no analgesic effect was obtained even at the postoperative first day
